Assay results from PubChem BioAssay AID256 (DTP/NCI, 2004).
Values joined by “and” are separate entries in the source; they are usually repeats but may differ in a detail not shown here. Equal values may be shown once. Inconclusive results and toxic doses are left out. The calls were made as follows: active = survival T/C of 150% or more; inactive = T/C below 125% in these data.

Tested on: CD2F1 mice, L1210 leukemia ip, survival T/C
Assay: NCI In Vivo Anticancer Drug Screen. Data for tumor model L1210 Leukemia (intraperitoneal) in CD2F1 (CDF1) mice
Conditions: higher = longer survival
In short: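 Each value reflects a quotient of treated over vehicle control outcomes in mice with a transplanted tumor.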

[1] = endpoint: mean survival time, dose: 100.0 mg/kg/injection, schedule: Q01DX009 (ip), vehicle: saline with Tween-80
[2] = endpoint: mean survival time, dose: 200.0 mg/kg/injection, schedule: Q01DX009 (ip), vehicle: saline with Tween-80
[3] = endpoint: mean survival time, dose: 100.0 mg/kg/injection, schedule: Q01DX001 (ip), vehicle: saline with Tween-80
[4] = endpoint: mean survival time, dose: 200.0 mg/kg/injection, schedule: Q01DX001 (ip), vehicle: saline with Tween-80
[5] = endpoint: mean survival time, dose: 100.0 mg/kg/injection, schedule: Q01DX009 (ip), vehicle: saline
[6] = endpoint: mean survival time, dose: 100.0 mg/kg/injection, schedule: Q04DX003 (ip), vehicle: saline with Tween-80
[7] = endpoint: mean survival time, dose: 200.0 mg/kg/injection, schedule: Q04DX003 (ip), vehicle: saline with Tween-80
[8] = endpoint: mean survival time, dose: 400.0 mg/kg/injection, schedule: Q04DX003 (ip), vehicle: saline with Tween-80
[9] = endpoint: mean survival time, dose: 400.0 mg/kg/injection, schedule: Q01DX009 (ip), vehicle: saline with Tween-80
[10] = endpoint: mean survival time, dose: 400.0 mg/kg/injection, schedule: Q01DX001 (ip), vehicle: saline with Tween-80
[11] = endpoint: mean survival time, dose: 200.0 mg/kg/injection, schedule: Q01DX001 (ip), vehicle: saline

Measured: T/C

COc1cc2c(cc1O)N=C[C@@H]1CCC(O)N1C2=O (mixture of isomers)
inactive: endpoint: mean survival time, dose: 0.5 mg/kg/injection, schedule: Q01DX009 (ip), vehicle: saline 108 % of control | endpoint: mean survival time, dose: 1.0 mg/kg/injection, schedule: Q01DX009 (ip), vehicle: saline 102 % of control and 108 % of control | endpoint: mean survival time, dose: 2.0 mg/kg/injection, schedule: Q01DX009 (ip), vehicle: saline 118 % of control and 111 % of control | endpoint: mean survival time, dose: 4.0 mg/kg/injection, schedule: Q01DX009 (ip), vehicle: saline 113 % of control and 117 % of control | endpoint: mean survival time, dose: 8.0 mg/kg/injection, schedule: Q01DX009 (ip), vehicle: saline 106 % of control and 107 % of control | endpoint: median survival time, dose: 0.1 mg/kg/injection, schedule: Q01DX005 (ip), vehicle: saline 102 % of control | endpoint: median survival time, dose: 0.2 mg/kg/injection, schedule: Q01DX005 (ip), vehicle: saline 102 % of control | endpoint: median survival time, dose: 0.4 mg/kg/injection, schedule: Q01DX005 (ip), vehicle: saline 102 % of control | endpoint: median survival time, dose: 0.8 mg/kg/injection, schedule: Q01DX005 (ip), vehicle: saline 102 % of control | endpoint: median survival time, dose: 1.6 mg/kg/injection, schedule: Q01DX005 (ip), vehicle: saline 107 % of control

CCCCNC(=O)NCCc1ccc(OC)c(OC)c1
inactive: [1] 87 % of control | [2] 89 % of control

CC(C)(C)C1=CC(=O)C(C(C)(C)C)=CC1=O
inactive: [3] 97 % of control | [4] 103 % of control

Cn1c(=O)c2c(nc(N3CCOCC3)n2CCCNCC(O)c2ccc(O)cc2)n(C)c1=O (stereo not given)
inactive: endpoint: mean survival time, dose: 12.5 mg/kg/injection, schedule: Q01DX005 (ip), vehicle: water 102 % of control | endpoint: mean survival time, dose: 25.0 mg/kg/injection, schedule: Q01DX005 (ip), vehicle: water 104 % of control | endpoint: mean survival time, dose: 50.0 mg/kg/injection, schedule: Q01DX005 (ip), vehicle: water 100 % of control | endpoint: mean survival time, dose: 100.0 mg/kg/injection, schedule: Q01DX005 (ip), vehicle: water 98 % of control | endpoint: mean survival time, dose: 200.0 mg/kg/injection, schedule: Q01DX005 (ip), vehicle: water 104 % of control

CC(=O)OCC1C(OC(C)=O)CC2CCC1N2C#N (stereo not given)
inactive: endpoint: mean survival time, dose: 50.0 mg/kg/injection, schedule: Q04DX002 (ip), vehicle: Klucel (hydroxypropylcellulose) (HPC) 107 % of control | endpoint: mean survival time, dose: 100.0 mg/kg/injection, schedule: Q04DX002 (ip), vehicle: Klucel (hydroxypropylcellulose) (HPC) 96 % of control | endpoint: mean survival time, dose: 200.0 mg/kg/injection, schedule: Q04DX002 (ip), vehicle: Klucel (hydroxypropylcellulose) (HPC) 88 % of control and 89 % of control

CC1COC(=O)O1 (stereo not given)
inactive: [5] 101 % of control | [6] 97 % of control | endpoint: mean survival time, dose: 200.0 mg/kg/injection, schedule: Q01DX009 (ip), vehicle: saline 98 % of control | [7] 97 % of control | endpoint: mean survival time, dose: 400.0 mg/kg/injection, schedule: Q01DX009 (ip), vehicle: saline 101 % of control | [8] 96 % of control

CC(O)Cc1c(Cc2ccccc2)nc(-c2ccccc2)[nH]c1=O (stereo not given)
inactive: endpoint: mean survival time, dose: 50.0 mg/kg/injection, schedule: Q01DX009 (ip), vehicle: saline with Tween-80 91 % of control | [1] 90 % of control | [6] 95 % of control | [7] 90 % of control | [8] 88 % of control

O=C1C=CC2OC(c3ccccc3)C(O)C2O1 (stereo not given)
inactive: endpoint: median survival time, dose: 3.12 mg/kg/injection, schedule: Q01DX005 (ip), vehicle: DMSO 111 % of control | endpoint: median survival time, dose: 6.25 mg/kg/injection, schedule: Q01DX005 (ip), vehicle: DMSO 101 % of control | endpoint: median survival time, dose: 12.5 mg/kg/injection, schedule: Q01DX005 (ip), vehicle: DMSO 112 % of control | endpoint: median survival time, dose: 25.0 mg/kg/injection, schedule: Q01DX005 (ip), vehicle: DMSO 115 % of control | endpoint: median survival time, dose: 50.0 mg/kg/injection, schedule: Q01DX005 (ip), vehicle: DMSO 87 % of control

O=C1CCCCCCCC1O (stereo not given)
inactive: [1] 95 % of control | [2] 94 % of control | [9] 105 % of control

COC(=O)C1CCC2C3CC=C4CC(O)CCC4(C)C3CCC12C (stereo not given)
inactive: [3] 98 % of control | [4] 93 % of control | [10] 93 % of control

N#CCC(=O)O
inactive: endpoint: mean survival time, dose: 37.5 mg/kg/injection, schedule: Q04DX003 (ip), vehicle: saline 100 % of control | endpoint: mean survival time, dose: 75.0 mg/kg/injection, schedule: Q04DX003 (ip), vehicle: saline 100 % of control

CC(C)CC(C)OP(=S)(S)OC(C)CC(C)C (stereo not given)
inactive: endpoint: mean survival time, dose: 12.5 mg/kg/injection, schedule: Q04DX002 (ip), vehicle: saline 95 % of control | endpoint: mean survival time, dose: 25.0 mg/kg/injection, schedule: Q04DX002 (ip), vehicle: saline 95 % of control | endpoint: mean survival time, dose: 50.0 mg/kg/injection, schedule: Q04DX002 (ip), vehicle: saline 109 % of control

C=CCc1cccc(OC)c1OCCN(CC)CC
inactive: endpoint: mean survival time, dose: 5.0 mg/kg/injection, schedule: Q01DX009 (ip), vehicle: saline with Tween-80 102 % of control | endpoint: mean survival time, dose: 5.0 mg/kg/injection, schedule: Q04DX003 (ip), vehicle: saline with Tween-80 94 % of control | endpoint: mean survival time, dose: 10.0 mg/kg/injection, schedule: Q01DX009 (ip), vehicle: saline with Tween-80 96 % of control | endpoint: mean survival time, dose: 10.0 mg/kg/injection, schedule: Q04DX003 (ip), vehicle: saline with Tween-80 96 % of control | endpoint: mean survival time, dose: 20.0 mg/kg/injection, schedule: Q01DX009 (ip), vehicle: saline with Tween-80 91 % of control | endpoint: mean survival time, dose: 20.0 mg/kg/injection, schedule: Q04DX003 (ip), vehicle: saline with Tween-80 96 % of control

O=C(O)CCC(CCC(=O)O)(C(=O)O)C(=O)O
inactive: endpoint: median survival time, dose: 75.0 mg/kg/injection, schedule: Q01DX009 (ip), vehicle: saline 98 % of control | endpoint: median survival time, dose: 150.0 mg/kg/injection, schedule: Q01DX009 (ip), vehicle: saline 96 % of control | endpoint: median survival time, dose: 300.0 mg/kg/injection, schedule: Q01DX009 (ip), vehicle: saline 96 % of control

O=C1C=C(c2ccccc2)OC(=O)C1C(=O)c1ccccc1 (stereo not given)
inactive: [3] 98 % of control | [4] 94 % of control

Cc1ccc(S(=O)(=O)N(C)c2ccc(C(=O)O)c(Cl)c2Cl)cc1
inactive: [3] 96 % of control | [1] 101 % of control | [4] 93 % of control | [2] 98 % of control | [10] 102 % of control | [9] 98 % of control

CC/C=C(\C)C=O
inactive: endpoint: mean survival time, dose: 100.0 mg/kg/injection, schedule: Q01DX001 (ip), vehicle: saline 100 % of control | [11] 97 % of control | endpoint: mean survival time, dose: 400.0 mg/kg/injection, schedule: Q01DX001 (ip), vehicle: saline 97 % of control

CN(CCCOS(C)(=O)=O)CCCOS(C)(=O)=O
inactive: endpoint: mean survival time, dose: 6.3 mg/kg/injection, schedule: Q01DX009 (ip), vehicle: saline 123 % of control | endpoint: mean survival time, dose: 6.3 mg/kg/injection, schedule: Q04DX003 (ip), vehicle: saline 117 % of control and 119 % of control and 109 % of control | endpoint: mean survival time, dose: 8.4 mg/kg/injection, schedule: Q01DX009 (oral), vehicle: saline 104 % of control | endpoint: mean survival time, dose: 12.5 mg/kg/injection, schedule: Q01DX001 (ip), vehicle: saline 108 % of control | endpoint: mean survival time, dose: 39.0 mg/kg/injection, schedule: Q01DX009 (oral), vehicle: saline 121 % of control | endpoint: mean survival time, dose: 65.0 mg/kg/injection, schedule: Q01DX001 (oral), vehicle: saline 104 % of control | [5] 87 % of control and 105 % of control and 93 % of control | endpoint: mean survival time, dose: 108.0 mg/kg/injection, schedule: Q01DX001 (oral), vehicle: saline 102 % of control | [11] 118 % of control | endpoint: mean survival time, dose: 200.0 mg/kg/injection, schedule: Q04DX003 (ip), vehicle: saline 87 % of control and 88 % of control | endpoint: mean survival time, dose: 300.0 mg/kg/injection, schedule: Q01DX001 (oral), vehicle: saline 114 % of control
